Reference: US20250136608A1, “COMPOUNDS CONTAINING A GEM-DIFLUORIDE GROUP AND PREPARATION METHOD AND USE THEREOF” (CGENETECH (SUZHOU, CHINA) CO., LTD, priority 2022, published 2025)
pIC50: −log10 of the molar value.

How the values were obtained:
[1] = Oral pharmacokinetic test in mice; settings: male, C57, mouse, in vivo, 10 mg/kg
JAK3 = JAK3 (Homo sapiens, UniProt P52333); experiment: JAK3 kinase inhibitory activity test (HTRF); type: biochemical; settings: JAK3 0.1 ng/μL, ATP 3 μM, substrate 1 μM, 3 h
in vivo = settings: male, C57, mouse, po

| pIC50 (JAK3) | AUC(0-inf) (in vivo; 10 mg/kg) [ng·h/mL] | AUC(0-t) (in vivo; 10 mg/kg) [ng·h/mL] | Cmax (in vivo; 10 mg/kg) [ng/mL] | MRT inf (in vivo; 10 mg/kg) [min] | MRT last (in vivo; 10 mg/kg) [min] | Tmax (in vivo; 10 mg/kg) [min] | half-life (in vivo; 10 mg/kg) [min] | Structure (SMILES) | also measured |
| --- | --- | --- | --- | --- | --- | --- | --- | --- | --- |
| 6.40 | – | – | – | – | – | – | – | N#CCC(C1CCC(F)(F)CC1)n1cc(-c2ncnc3[nH]ccc23)cn1 (centres unmarked) [Compound 4] | – |
| 6.31 | 2000 | 1980 | 1410 | 78.6 | 73.2 | 15 | 81.6 | N#CCC(C1CCC(C(F)(F)F)CC1)n1cc(-c2ncnc3[nH]ccc23)cn1 (centres unmarked) [Compound 5] | – |

Further lines, the molecule ahead of its results:

| Structure (SMILES) | pIC50 (JAK3) | AUC(0-inf) (in vivo; 10 mg/kg) [ng·h/mL] | AUC(0-t) (in vivo; 10 mg/kg) [ng·h/mL] | Cmax (in vivo; 10 mg/kg) [ng/mL] | MRT inf (in vivo; 10 mg/kg) [min] | MRT last (in vivo; 10 mg/kg) [min] | Tmax (in vivo; 10 mg/kg) [min] | half-life (in vivo; 10 mg/kg) [min] | also measured |
| --- | --- | --- | --- | --- | --- | --- | --- | --- | --- |
| N#CCC1(n2cc(-c3ncnc4[nH]ccc34)cn2)CCC(F)(F)CC1 [Compound 1] | – | – | – | – | – | – | – | – | AUC(0-inf) [1]: 2150 ng·h/mL; AUC(0-t) [1]: 2130 ng·h/mL; Cmax [1]: 1480 ng/mL; MRT inf [1]: 81 min; MRT last [1]: 75 min; Tmax [1]: 19.8 min; half-life [1]: 70.8 min |
| N#CCC1(n2cc(-c3ncnc4[nH]ccc34)cn2)CCC(C(F)(F)F)CC1 (centres unmarked) [Compound 3] | 6.82 | – | – | – | – | – | – | – | – |
| N#CC[C@@H](CCC(F)(F)F)n1cc(-c2ncnc3[nH]ccc23)cn1 [Compound 6-1] | 6.51 | 9240 | 9230 | 6320 | 69 | 68.4 | 15 | 50.4 | – |
| N#CC[C@H](CCC(F)(F)F)n1cc(-c2ncnc3[nH]ccc23)cn1 [Compound 6-2] | 6.94 | 4770 | 4760 | 6770 | 36.6 | 36 | 4.8 | 44.4 | – |
| N#CCC(C1CC(F)(F)C1)n1cc(-c2ncnc3[nH]ccc23)cn1 (centres unmarked) [Compound 7] | 6.32 | 1660 | 1660 | 3190 | 30.6 | 29.4 | 4.8 | 89.4 | – |
| CC(C)(C(CC#N)n1cc(-c2ncnc3[nH]ccc23)cn1)C(F)(F)F (centres unmarked) [Compound 8] | 6.38 | – | – | – | – | – | – | – | – |
| N#CCC(n1cc(-c2ncnc3[nH]ccc23)cn1)C1(C(F)(F)F)CCC1 (centres unmarked) [Compound 9] | 6.40 | – | – | – | – | – | – | – | – |
| N#CC[C@H](C1CCCC1)n1cc(-c2ncnc3[nH]ccc23)cn1 [Ruxolitinib, reference compound] | – | – | – | – | – | – | – | – | AUC(0-inf) (in vivo; 5 mg/kg): 580 ng·h/mL; AUC(0-t) (in vivo; 5 mg/kg): 578 ng·h/mL; Cmax (in vivo; 5 mg/kg): 893 ng/mL; MRT inf (in vivo; 5 mg/kg): 42.6 min; MRT last (in vivo; 5 mg/kg): 42 min; Tmax (in vivo; 5 mg/kg): 7.8 min; half-life (in vivo; 5 mg/kg): 30 min |
